The target of assay [1] is Angiotensin-converting enzyme (Bos taurus) (UniProt P12820). Put plainly: Inhibition of ACE in bovine kidney. On the set-up: concentration or dose not given beside the values. As to conditions: concentration not given here.
The target is the same in assay [2]. Kind of assay: Activity against ACE in bovine kidney.

From ChEMBL document CHEMBL1146940, “Structure-activity relationship study between Ornithyl-Proline and Lysyl-Proline based tripeptidomimics as angiotensin-converting enzyme inhibitors” (Bioorg Med Chem Lett, 2006) come the findings set out here.

Square brackets hold non-standard residues; d marks the D form. Peptide text beside a SMILES is read from it. Trp(5-OH) = N[C@@H](Cc1c[nH]c2ccc(O)cc12)C(=O)O; NMeW = CN[C@@H](Cc1c[nH]c2ccccc12)C(=O)O; Dip = N[C@H](C(=O)O)C(c1ccccc1)c1ccccc1; β3hW = N[C@H](CC(=O)O)Cc1c[nH]c2ccccc12; Tic = O=C(O)[C@@H]1Cc2ccccc2CN1; 3Thi = N[C@@H](Cc1ccsc1)C(=O)O; Cha = N[C@@H](CC1CCCCC1)C(=O)O; Orn = NCCC[C@H](N)C(=O)O

Angiotensin-converting enzyme (Bos taurus), sequence (P12820 whole entry, looked up): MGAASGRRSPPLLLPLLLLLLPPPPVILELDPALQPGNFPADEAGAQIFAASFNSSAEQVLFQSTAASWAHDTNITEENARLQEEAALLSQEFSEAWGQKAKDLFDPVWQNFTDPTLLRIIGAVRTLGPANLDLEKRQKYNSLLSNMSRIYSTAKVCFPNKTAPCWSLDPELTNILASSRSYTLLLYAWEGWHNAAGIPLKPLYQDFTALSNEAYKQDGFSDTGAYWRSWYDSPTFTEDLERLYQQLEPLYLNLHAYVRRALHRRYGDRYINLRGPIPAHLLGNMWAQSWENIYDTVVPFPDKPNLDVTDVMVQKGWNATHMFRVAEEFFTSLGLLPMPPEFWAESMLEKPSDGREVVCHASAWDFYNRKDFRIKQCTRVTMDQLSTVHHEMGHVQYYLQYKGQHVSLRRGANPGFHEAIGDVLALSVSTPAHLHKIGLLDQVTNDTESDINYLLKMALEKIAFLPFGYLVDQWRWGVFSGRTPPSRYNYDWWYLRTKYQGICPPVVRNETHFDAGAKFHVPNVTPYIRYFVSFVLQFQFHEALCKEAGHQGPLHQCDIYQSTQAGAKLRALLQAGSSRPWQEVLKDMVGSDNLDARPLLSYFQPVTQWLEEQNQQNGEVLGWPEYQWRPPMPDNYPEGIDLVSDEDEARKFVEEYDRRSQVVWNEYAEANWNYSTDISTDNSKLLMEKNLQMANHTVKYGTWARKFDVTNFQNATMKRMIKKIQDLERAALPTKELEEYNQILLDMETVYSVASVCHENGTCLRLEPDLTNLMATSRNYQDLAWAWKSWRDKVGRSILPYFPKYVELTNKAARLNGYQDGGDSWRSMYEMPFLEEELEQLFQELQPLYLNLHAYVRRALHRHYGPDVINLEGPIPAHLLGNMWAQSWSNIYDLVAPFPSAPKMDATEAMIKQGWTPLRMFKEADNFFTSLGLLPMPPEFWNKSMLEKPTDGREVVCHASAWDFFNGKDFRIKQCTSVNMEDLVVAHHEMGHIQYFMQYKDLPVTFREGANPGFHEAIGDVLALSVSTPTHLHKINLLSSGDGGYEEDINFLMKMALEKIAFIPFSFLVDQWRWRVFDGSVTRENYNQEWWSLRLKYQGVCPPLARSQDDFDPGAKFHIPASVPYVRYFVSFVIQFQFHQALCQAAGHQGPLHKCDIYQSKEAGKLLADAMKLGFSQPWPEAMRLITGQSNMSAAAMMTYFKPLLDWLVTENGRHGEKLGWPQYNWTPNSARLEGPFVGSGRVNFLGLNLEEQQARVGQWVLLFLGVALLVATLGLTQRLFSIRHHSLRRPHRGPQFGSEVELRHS

On to `NCCCC[C@H](NC(=O)CCc1ccc(O)cc1)C(=O)N1CCC[C@H]1C(=O)O`, for which the inhibition (usually the relative decrease from the control value, in per cent) in assay [1] stood at 29.3%. In assay [2], this molecule displayed an Activity of 9.52 mU/ml.

`NCCCC[C@H](NC(=O)C[C@@H](N)Cc1ccccc1)C(=O)N1CCC[C@H]1C(=O)O` came in with an inhibition in assay [1] of 22.6%. The molecule further displayed an Activity in assay [2] of 10.4 mU/ml.

For the molecule `NCCCC[C@H](NC(=O)[C@@H](N)Cc1ccco1)C(=O)N1CCC[C@H]1C(=O)O`, in assay [1], the inhibition is 10.1%. The molecule further returned an Activity in assay [2] of 12.1 mU/ml.

In assay [1], `NCCC[C@H](NC(=O)CCc1ccc(O)cc1)C(=O)N1CCC[C@H]1C(=O)O` returned an inhibition of 23.8%. Further, the Activity in assay [2] worked out at 10.3 mU/ml.

Consider `NCCC[C@H](NC(=O)CCc1nc2ccccc2[nH]1)C(=O)N1CCC[C@H]1C(=O)O`, for which, in assay [1], the inhibition was 65.5%. Moreover, in assay [2], the Activity stood at 4.7 mU/ml.

The molecule `NCCC[C@H](NC(=O)C[C@@H](N)Cc1ccccc1)C(=O)N1CCC[C@H]1C(=O)O` displayed an inhibition in assay [1] of 31.7%. The molecule further had an Activity in assay [2] of 9.21 mU/ml.

For the molecule `NCCC[C@H](NC(=O)[C@@H](N)Cc1ccco1)C(=O)N1CCC[C@H]1C(=O)O`, in assay [1], the inhibition was 35.6%. Besides, the Activity in assay [2] came to 8.67 mU/ml.

`NCCCC[C@H](NC(=O)[C@@H](N)Cc1ccsc1)C(=O)N1CCC[C@H]1C(=O)O` (H-[3Thi]-Lys-Pro-OH) had an inhibition in assay [1] of 13.3%. This molecule also showed an Activity in assay [2] of 11.7 mU/ml.

In the case of `NCCC[C@H](NC(=O)[C@@H](N)Cc1ccsc1)C(=O)N1CCC[C@H]1C(=O)O` (H-[3Thi]-[Orn]-Pro-OH), in assay [1], the inhibition was determined as 74.7%. Also, in assay [2], the Activity was found to be 3.41 mU/ml.

For the molecule `NCCCC[C@H](NC(=O)[C@@H](N)CC1CCCCC1)C(=O)N1CCC[C@H]1C(=O)O` (H-[Cha]-Lys-Pro-OH), the inhibition in assay [1] is 3.71%. Further, the Activity in assay [2] was 13.1 mU/ml.

On to `NCCC[C@H](NC(=O)[C@@H](N)CC1CCCCC1)C(=O)N1CCC[C@H]1C(=O)O` (H-[Cha]-[Orn]-Pro-OH), for which, in assay [1], the inhibition is 30.8%. For the same molecule, the Activity in assay [2] stood at 9.32 mU/ml.

Consider `NCCCC[C@H](NC(=O)[C@@H](N)C(c1ccccc1)c1ccccc1)C(=O)N1CCC[C@H]1C(=O)O` (H-[Dip]-Lys-Pro-OH), for which the inhibition in assay [1] stood at 33.8%. The molecule further came in with an Activity in assay [2] of 8.91 mU/ml.

For the molecule `NCCC[C@H](NC(=O)[C@@H](N)C(c1ccccc1)c1ccccc1)C(=O)N1CCC[C@H]1C(=O)O` (H-[Dip]-[Orn]-Pro-OH), the inhibition in assay [1] is 27.7%. The Activity in assay [2] turned out to be 9.74 mU/ml.

`CN[C@@H](Cc1c[nH]c2ccccc12)C(=O)N[C@@H](CCCCN)C(=O)N1CCC[C@H]1C(=O)O` (H-[NMeW]-Lys-Pro-OH) yielded an inhibition in assay [1] of 39.1%. In assay [2], this molecule registered an Activity of 8.2 mU/ml.

For `CN[C@@H](Cc1c[nH]c2ccccc12)C(=O)N[C@@H](CCCN)C(=O)N1CCC[C@H]1C(=O)O` (H-[NMeW]-[Orn]-Pro-OH), the inhibition in assay [1] was determined as 63.6%. In assay [2], this molecule displayed an Activity of 4.88 mU/ml.

`NCCCC[C@H](NC(=O)[C@@H]1Cc2ccccc2CN1)C(=O)N1CCC[C@H]1C(=O)O` (H-[Tic]-Lys-Pro-OH): the inhibition in assay [1] was 19.4%. This molecule returned an Activity in assay [2] of 10.8 mU/ml.

Molecule `NCCC[C@H](NC(=O)[C@@H]1Cc2ccccc2CN1)C(=O)N1CCC[C@H]1C(=O)O` (H-[Tic]-[Orn]-Pro-OH) had an inhibition in assay [1] of 25%. In assay [2], this molecule registered an Activity of 10.1 mU/ml.

As for `NCCC[C@H](NC(=O)[C@@H](N)Cc1c[nH]c2ccc(O)cc12)C(=O)N1CCC[C@H]1C(=O)O` (H-[Trp(5-OH)]-[Orn]-Pro-OH), the inhibition in assay [1] is 68.8%. Further, the Activity in assay [2] was determined as 4.2 mU/ml.

In assay [1], `NCCCC[C@H](NC(=O)C[C@@H](N)Cc1c[nH]c2ccccc12)C(=O)N1CCC[C@H]1C(=O)O` (H-[β3hW]-Lys-Pro-OH) gave an inhibition of 30.2%. Also, in assay [2], the Activity was found to be 9.4 mU/ml.

In assay [1], `NCCC[C@H](NC(=O)C[C@@H](N)Cc1c[nH]c2ccccc12)C(=O)N1CCC[C@H]1C(=O)O` (H-[β3hW]-[Orn]-Pro-OH) registered an inhibition of 9.13%. Moreover, in assay [2], the Activity came to 12.2 mU/ml.
